Experiments:
[1] = tested on: human prostate cancer LNCaP cells; experiment: Cytotoxic action on cancer cells (WST-8, 96 hr); format: cell-based; conditions: Homo sapiens, LNCaP, 96 h, read-out: LNCaP cytotoxic activity: IC50
Summary of the method: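 Seed cells in 10% FBS/RPMI1640 and culture overnight (37° C, 5% CO2). Add test compound (DMSO stock diluted in medium). Culture further, then read viable cell number by WST-8. Derive IC50 from the straight line between survival points enclosing 50%.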

BRD4 protein = BRD4 protein (Homo sapiens (Human), UniProt O60885); experiment: BRD4 protein degradation inducing action in cancer cells (immunofluorescence, Operetta); format: cell-based; conditions: LNCaP cells, 6 hr treatment, fluorescence intensity
Summary of the method: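 LNCaP prostate cancer cells in 10% FBS/RPMI1640 were exposed to compound for 6 hr at 37° C, then fixed, permeabilized and immunostained for BRD4 with Alexa Fluor 488 or 546 secondary antibodies plus Hoechst nuclear stain. Fluorescence was read by high-content imaging; DC50 is the concentration giving 50% of untreated signal, interpolated linearly between bracketing points.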

DC50 (BRD4 protein) [nM]	Structure (SMILES)	IC50 [1] [nM]
0.24	COC(=O)C[C@@H]1N=C(c2ccc(-c3ccc(OCC(=O)N[C@H](C(=O)N4C[C@H](O)C[C@H]4C(=O)N[C@@H](C)c4ccc(-c5scnc5C)cc4)C(C)(C)C)cc3C)cc2)c2c(sc(C)c2C)-n2c(C)nnc21 [Example 49, methyl [(6S)-4-{4′-[2-({(2S)-1-[(2S,4R)-4-hydroxy-2-({(1S)-1-[4-(4-methyl-1,3-thiazol-5-yl)phenyl]ethyl}carbamoyl)pyrrolidin-1-yl]-3,3-dimethyl-1-oxobutan-2-yl}amino)-2-oxoethoxy]-2′-methyl[1,1′-biphenyl]-4-yl}-2,3,9-trimethyl-6H-thieno[3,2-f][1,2,4]triazolo[4,3-a] [1,4]diazepin-6-yl]acetate]	0.12
0.74	COC(=O)C[C@@H]1N=C(c2ccc(-c3cccc(C(=O)N[C@H](C(=O)N4C[C@H](O)C[C@H]4C(=O)N[C@@H](C)c4ccc(-c5scnc5C)cc4)C(C)(C)C)c3)cc2)c2c(sc(C)c2C)-n2c(C)nnc21 [Example 60, methyl {(6S)-4-[3′-({(2S)-1-[(2S,4R)-4-hydroxy-2-({(1S)-1-[4-(4-methyl-1,3-thiazol-5-yl)phenyl]ethyl}carbamoyl)pyrrolidin-1-yl]-3,3-dimethyl-1-oxobutan-2-yl}carbamoyl)[1,1′-biphenyl]-4-yl]-2,3,9-trimethyl-6H-thieno[3,2-f][1,2,4]triazolo[4,3-a][1,4]diazepin-6-yl}acetate]	0.12
0.53	Cc1ncsc1-c1ccc([C@H](C)NC(=O)[C@@H]2C[C@@H](O)CN2C(=O)[C@@H](NC(=O)COc2ccc(-c3ccc(C4=N[C@@H](C)c5nnc(C)n5-c5sc(C)c(C)c54)cc3)cc2C#N)C(C)(C)C)cc1 [Example 16, (2S,4R)-1-{(2S)-2-[2-({3-cyano-4′-[(6S)-2,3,6,9-tetramethyl-6H-thieno[3,2-f][1,2,4]triazolo[4,3-a] [1,4]diazepin-4-yl][1,1′-biphenyl]-4-yl}oxy)acetamido]-3,3-dimethylbutanoyl}-4-hydroxy-N-{(1S)-1-[4-(4-methyl-1,3-thiazol-5-yl)phenyl]ethyl}pyrrolidine-2-carboxamide]	0.29
0.16	COC(=O)C[C@@H]1N=C(c2ccc(-c3ccc4oc(C(=O)N[C@H](C(=O)N5C[C@H](O)C[C@H]5C(=O)NCc5ccc(-c6scnc6C)cc5)C(C)(C)C)nc4c3)cc2)c2c(sc(C)c2C)-n2c(C)nnc21 [Example 171, methyl [(6S)-4-{4-[2-({(2S)-1-[(2S,4R)-4-hydroxy-2-({[4-(4-methyl-1,3-thiazol-5-yl)phenyl]methyl}carbamoyl)pyrrolidin-1-yl]-3,3-dimethyl-1-oxobutan-2-yl}carbamoyl)-1,3-benzoxazol-5-yl]phenyl}-2,3,9-trimethyl-6H-thieno[3,2-f][1,2,4]triazolo[4,3-a][1,4]diazepin-6-yl]acetate]	0.08
0.085	COC(=O)C[C@@H]1N=C(c2ccc(-c3ccc(/C=C/C(=O)N[C@H](C(=O)N4C[C@H](O)C[C@H]4C(=O)N[C@@H](C)c4ccc(-c5scnc5C)cc4)C(C)(C)C)cc3)cc2)c2c(sc(C)c2C)-n2c(C)nnc21 [Example 27, methyl [(6S)-4-{4′-[(1E)-3-({(2S)-1-[(2S,4R)-4-hydroxy-2-({(1S)-1-[4-(4-methyl-1,3-thiazol-5-yl)phenyl]ethyl}carbamoyl)pyrrolidin-1-yl]-3,3-dimethyl-1-oxobutan-2-yl}amino)-3-oxopropen-1-yl][1,1′-biphenyl]-4-yl}-2,3,9-trimethyl-6H-thieno[3,2-f][1,2,4]triazolo[4,3-a] [1,4]diazepin-6-yl]acetate]	0.064
0.51	Cc1ncsc1-c1ccc([C@H](C)NC(=O)[C@@H]2C[C@@H](O)CN2C(=O)[C@@H](NC(=O)c2cc(F)c(-c3ccc(C4=N[C@@H](C)c5nnc(C)n5-c5sc(C)c(C)c54)cc3)cc2Cl)C(C)(C)C)cc1 [Example 204, (2S,4R)-1-[(2S)-2-({5-chloro-2-fluoro-4′-[(6S)-2,3,6,9-tetramethyl-6H-thieno[3,2-f][1,2,4]triazolo[4,3-a] [1,4]diazepin-4-yl][1,1′-biphenyl]-4-carbonyl}amino)-3,3-dimethylbutanoyl]-4-hydroxy-N-{(1S)-1-[4-(4-methyl-1,3-thiazol-5-yl)phenyl]ethyl}pyrrolidine-2-carboxamide]	0.32
0.21	COC(=O)C[C@@H]1N=C(c2ccc(-c3ccc(OCC(=O)N[C@H](C(=O)N4C[C@H](O)C[C@H]4C(=O)N[C@@H](C)c4ccc(-c5scnc5C)cc4)C(C)(C)C)c(C(F)(F)F)c3)cc2)c2c(sc(C)c2C)-n2c(C)nnc21 [Example Compound 100, methyl [(6S)-4-{4′-[2-({(2S)-1-[(2S,4R)-4-hydroxy-2-({(1S)-1-[4-(4-methyl-1,3-thiazol-5-yl)phenyl]ethyl}carbamoyl)pyrrolidin-1-yl]-3,3-dimethyl-1-oxobutan-2-yl}amino)-2-oxoethoxy]-3′-(trifluoromethyl)[1,1′-biphenyl]-4-yl}-2,3,9-trimethyl-6H-thieno[3,2-f] [1,2,4]triazolo[4,3-a][1,4]diazepin-6-yl]acetate]	0.67
0.3	COC(=O)C[C@@H]1N=C(c2ccc(-c3ccc(O[C@H]4C[C@@H](C(=O)N[C@H](C(=O)N5C[C@H](O)C[C@H]5C(=O)N[C@@H](C)c5ccc(-c6scnc6C)cc5)C(C)(C)C)C4)nc3)cc2)c2c(sc(C)c2C)-n2c(C)nnc21 [Example 162, methyl {(6S)-4-[4-(6-{[cis-3-({(2S)-1-[(2S,4R)-4-hydroxy-2-({(1S)-1-[4-(4-methyl-1,3-thiazol-5-yl)phenyl]ethyl}carbamoyl)pyrrolidin-1-yl]-3,3-dimethyl-1-oxobutan-2-yl}carbamoyl)cyclobutyl]oxy}pyridin-3-yl)phenyl]-2,3,9-trimethyl-6H-thieno[3,2-f][1,2,4]triazolo[4,3-a] [1,4]diazepin-6-yl}acetate]	0.37
0.32	COC(=O)C[C@@H]1N=C(c2ccc(-c3ccc(C(=O)N[C@H](C(=O)N4C[C@H](O)C[C@H]4C(=O)N[C@@H](C)c4ccc(-c5scnc5C)cc4)C(C)(C)C)cc3)cc2)c2c(sc(CO)c2C)-n2c(C)nnc21 [Example 209, methyl {(6S)-2-(hydroxymethyl)-4-[4′-({(2S)-1-[(2S,4R)-4-hydroxy-2-({(1S)-1-[4-(4-methyl-1,3-thiazol-5-yl)phenyl]ethyl}carbamoyl)pyrrolidin-1-yl]-3,3-dimethyl-1-oxobutan-2-yl}carbamoyl)[1,1′-biphenyl]-4-yl]-3,9-dimethyl-6H-thieno[3,2-f][1,2,4]triazolo[4,3-a][1,4]diazepin-6-yl}acetate]	0.24
0.075	COC(=O)C[C@@H]1N=C(c2ccc(N3CCc4ccc(C(=O)N[C@H](C(=O)N5C[C@H](O)C[C@H]5C(=O)N[C@@H](C)c5ccc(-c6scnc6C)cc5)C(C)(C)C)cc4C3)cc2)c2c(sc(C)c2C)-n2c(C)nnc21 [Example 161, methyl [(6S)-4-{4-[7-({(2S)-1-[(2S,4R)-4-hydroxy-2-({(1S)-1-[4-(4-methyl-1,3-thiazol-5-yl)phenyl]ethyl}carbamoyl)pyrrolidin-1-yl]-3,3-dimethyl-1-oxobutan-2-yl}carbamoyl)-3,4-dihydroisoquinolin-2(1H)-yl]phenyl}-2,3,9-trimethyl-6H-thieno[3,2-f][1,2,4]triazolo[4,3-a][1,4]diazepin-6-yl]acetate]	0.22
0.37	Cc1ncsc1-c1ccc([C@H](C)NC(=O)[C@@H]2C[C@@H](O)CN2C(=O)[C@@H](NC(=O)/C=C/c2ccc(C3=N[C@@H](C)c4nnc(C)n4-c4sc(C)c(C)c43)cc2)C(C)(C)C)cc1 [Example 201, (2S,4R)-1-[(2S)-3,3-dimethyl-2-{[(2E)-3-{4-[(6S)-2,3,6,9-tetramethyl-6H-thieno[3,2-f][1,2,4]triazolo[4,3-a] [1,4]diazepin-4-yl]phenyl}prop-2-enoyl]amino}butanoyl]-4-hydroxy-N-{(1S)-1-[4-(4-methyl-1,3-thiazol-5-yl)phenyl]ethyl}pyrrolidine-2-carboxamide]	0.34
0.042	COC(=O)C[C@@H]1N=C(c2ccc(N3CCc4cc(OCC(=O)N[C@H](C(=O)N5C[C@H](O)C[C@H]5C(=O)N[C@@H](C)c5ccc(-c6scnc6C)cc5)C(C)(C)C)ccc43)cc2)c2c(sc(C)c2C)-n2c(C)nnc21 [Example 151, methyl [(6S)-4-(4-{5-[2-({(2S)-1-[(2S,4R)-4-hydroxy-2-({(1S)-1-[4-(4-methyl-1,3-thiazol-5-yl)phenyl]ethyl}carbamoyl)pyrrolidin-1-yl]-3,3-dimethyl-1-oxobutan-2-yl}amino)-2-oxoethoxy]-2,3-dihydro-1H-indol-1-yl}phenyl)-2,3,9-trimethyl-6H-thieno[3,2-f][1,2,4]triazolo[4,3-a] [1,4]diazepin-6-yl]acetate]	0.058
0.051	COC(=O)C[C@@H]1N=C(c2ccc(-c3ccc(NCC(=O)N[C@H](C(=O)N4C[C@H](O)C[C@H]4C(=O)N[C@@H](C)c4ccc(-c5scnc5C)cc4)C(C)(C)C)cc3)cc2)c2c(sc(C)c2C)-n2c(C)nnc21 [Example 45, methyl [(6S)-4-(4′-{[2-({(2S)-1-[(2S,4R)-4-hydroxy-2-({(1S)-1-[4-(4-methyl-1,3-thiazol-5-yl)phenyl]ethyl}carbamoyl)pyrrolidin-1-yl]-3,3-dimethyl-1-oxobutan-2-yl}amino)-2-oxoethyl]amino}[1,1′-biphenyl]-4-yl)-2,3,9-trimethyl-6H-thieno[3,2-f][1,2,4]triazolo[4,3-a] [1,4]diazepin-6-yl]acetate]	0.32

— patent publication US11542273B2, “Amide compound having bet proteolysis-inducing action and medicinal application thereof” (MITSUBISHI TANABE PHARMA CORPORATION, priority 2018, dated 2023)
